Measured values published in patent US20080201790A1, “Method and product for regulating cell responsiveness to external signals” (priority 1993, published 2008).

Test system: p42/p44 MAPK
Experiment: MAPK assay (DEAE-Sephacel, EGFR662-681 peptide) in L929 cells
Type: cell-based, murine
Description: In panel A cells were treated for 10 minutes with the indicated concentration of TNFα. JNK activation was measured using a solid phase kinase assay resulting in phosphorylation of GST-Jun. In […] the time course of MAPK activation is shown. MAPK was isolated from cell lysates on DEAE sephacel columns and MAPK activation was measured by phosphorylation of the EGFR peptide substrate. Panel C depicts the concentration curve of MAPK activation by TNFα. Cells were treated with the indicated concentration of TNFα and MAPK was assayed.
FIG. 26 depicts the activation of MAPK by bFGF in L929 cells. Serum starved L929 cells were stimulated for 10 min with the indicated concentration of bFGF.
Cell lines and culture. L929 cells (ATCC CCL1 were maintained in Dulbecco's modified Eagle's medium with 5% newborn calf serum and 5% bovine calf serum (BCS) supplemented with 100 ug/ml streptomycin and 100 U/ml penicillin. The cells were grown in 10 cm dishes at 37° C. in 7.5% CO2. Cells were made quiescent where indicated by incubation in Dulbecco's modified Eagle's medium and 0.1% bovine serum albumin for 24 h. Recombinant murine TNFα and recombinant human bFGF (147aa) were from R&D Systems, Minneapolis, Minn. Cells were pretreated where indicated with the MEK-1 inhibitor PD#098059 (Parke-Davis Pharmaceutical Corp. Ann Arbor, Mich.) for 1 h at 37° C. Cells were stimulated by incubation with the indicated cytokine or growth factor for various times at 37° C. Stimulation was stopped by rinsing the plates twice with ice cold phosphate buffered saline (PBS) and lysing the cells in the appropriate lysis buffer. Cells were scraped from the plates and nuclei were pelleted for 10 min at 14,000 RPM in a microcentrifuge. JNK assay. JNK activity was measured using a solid state kinase assay in which glutathione S-transferase-c-Jun (1-79) (GST-JUN) cound to glutathione-Sepharose 4B beads was used to affinity purify JNK and then JNK activity was measured in an in vitro kinase assay using the sepharose bound GST-Jun as a substrate (Hibi, M., et al. (1993) Genes & Development 7:2135-2148). Stimulated or unstimulated cells were lysed in 0.5% Nonidet P-40, 20 mM HEPES pH 7.2, 100 mM NaCl, 2 mM dithiothreitol, 1 mM EDTA, 1.0 mM phenylmethylsulfonylfluoride, 1 μg/ml aprotinin and the nuclei pelleted. Lysates were normalized for protein content. JNK was affinity purified from 50-100 μg of cell lysate by the addition of 10 ul of GST-Jun sepharose slurry (2 μg GST-Jun). Binding to GST-Jun efficiently isolates the two major forms of JNK (p45 and p55) and under the conditions used JNK isolation was linear for 10-250 μg of cell lysate. The lysates were rotated at 4° C. for 1-3 h. Beads were washed twice in lysis buffer and then twice in PAN (10 mM PIPES, pH 7.0, 100 mM NaCl, 21 μg/ml aprotinin). Kinase reactions were carried out at 30° C. for 15 min in 20 mM Hepes pH 7.2, 20 mM β-glycerophosphate, 10 mM p-nitrophenyl phosphate, 10 mM MgCl2, 1 mM dithiothreitol, 50 μm sodium vanadate, 10 μCi γ^32P-ATP 4300 Ci/mmole. The kinase reaction was linear from 0-30 min. MAPK Assay MAPK activity was measured exactly as described previously (Gardner, A. M., et al. (1994) Meth. Enzymol. 238:258-270) with the exception that MonoQ FPLC fractionation was replaced by step elution from a DEAE-Sephacel column using 0.5 M NaCl in loading buffer. The eluate was assayed in triplicate using the epidermal growth factor receptor 662-681 peptide (EGFR662-681) as a selective substrate for MAPK activity (Heasley, L. E., et al. (1994) American Journal of Physiology (Renal Fluid Electrolyte Physiol. 36) 267:F366-F373). […] Cells were lysed by scraping in ice cold RIPA buffer (50 mM Tris-HCl, pH 7.2, 150 mM NaCl, 0.1% SDS, 0.5% sodium deoxycholate, 1.0% Triton X-100, 10 mM sodium pyrophosphate, 25 mM β-glycerophosphate, 2 mM sodium vanadate, 2.1 μg/ml aprotinin) and the nuclei were pelletted. […]

TNFα
MAPK activity stimulated above basal (1 ng/ml TNFα): 20% | effect on MAPK activity (1 ng/ml TNFα, FIG. 27 panel B): only modest stimulatory effects on MAPK activity | concentration required to stimulate p42/p44 MAPK 2-3 fold (L929 cells): Greater than 10 ng/ml | effect on bFGF stimulation of MAPK activity (L929 cells): had little or no effect on bFGF stimulation of MAPK activity | time to maximal stimulation of p42/p44 MAPK activity (L929 cells): 5 to 10 min

bFGF: recombinant human bFGF (147aa), basic fibroblast growth factor
concentrations giving maximal stimulation of MAPK activity (serum starved L929 cells, 10 min): 0.25 to 0.5 ng/mL
